# Test system: E. coli (ATCC 25922)
# Experiment: AATCC Test Method 100-2012 antibacterial activity of the treated textile, after 25 washes and 12 abrasion cycles, contact time 60 minutes
# Type: cell-based
# Conditions: for Log reduction of antimicrobial performance: 1% o.w.f; for Log reduction of antimicrobial performance in 100 GSM Polyester fabric / Log reduction of antimicrobial performance in 100 GSM cotton fabric / Log reduction of antimicrobial performance in 300 GSM Polyester fabric / Log reduction of antimicrobial performance in 300 GSM cotton fabric / Performance Test-Log reduction of antimicrobial performance: 2 min; for Performance Test-Log reduction of antimicrobial performance: pad process, single agent 5 gm/lit
# Experimental: The antibacterial activity of the textile was tested in accordance with AATCC Test Method 100-2012. Prior to the test, the fabric was cut into coupons of 2×4 inches and washed separately 25 times, and exposed to 12 abrasion cycles, as per US EPA protocol 90072PA4 (described further below). The tests were made against E. coli (ATCC 25922). Contact time was 60 minutes, after inoculating with 10^8 CFU per coupon.
# [1] = exhaust 80° C., 60 min, curing 180° C., dosage 0.1% o.w.f
# [2] = exhaust 80° C., 60 min, curing 180° C., dosage 0.2% o.w.f
# [3] = exhaust 80° C., 60 min, curing 180° C., dosage 0.5% o.w.f
# [4] = exhaust 80° C., 60 min, curing 180° C., dosage 0.8% o.w.f
# [5] = exhaust 80° C., 60 min, curing 180° C., dosage 1.0% o.w.f
substance,measurement,setting,value
Silver,Log reduction of antimicrobial performance of each active ingredient,"exhaust 60° C., solution dosage 1% o.w.f, process time 60 min",1.1 Log
same,Log reduction of antimicrobial performance of each active ingredient,"exhaust 60° C., solution dosage 1% o.w.f, process time 90 min",1.3 Log
same,Log reduction of antimicrobial performance of each active ingredient,"exhaust 60° C., solution dosage 1% o.w.f, process time 120 min",1.5 Log
same,Log reduction of antimicrobial performance of each active ingredient,"exhaust 60° C., solution dosage 1% o.w.f, process time 180 min",1.8 Log
same,Log reduction of antimicrobial performance of each active ingredient,"exhaust 60° C., solution dosage 1% o.w.f, process time 240 min",1.75 Log
same,Log reduction of antimicrobial performance,"exhaust 80° C., 60 min, curing 170° C., curing dwell time 0.5 min",0.2 Log
same,Log reduction of antimicrobial performance,"exhaust 80° C., 60 min, curing 170° C., curing dwell time 1.0 min",0.5 Log
same,Log reduction of antimicrobial performance,"exhaust 80° C., 60 min, curing 170° C., curing dwell time 1.5 min",0.7 Log
same,Log reduction of antimicrobial performance,"exhaust 80° C., 60 min, curing 170° C., curing dwell time 2.0 min",1.6 Log
same,Log reduction of antimicrobial performance,"exhaust 80° C., 60 min, curing 170° C., curing dwell time 2.5 min",1.1 Log
same,Log reduction of antimicrobial performance,"exhaust 80° C., 60 min, curing 170° C., curing dwell time 3.0 min",0.7 Log
same,Log reduction of antimicrobial performance,"exhaust 80° C., 60 min, curing 180° C., curing dwell time 0.5 min",1.1 Log
same,Log reduction of antimicrobial performance,"exhaust 80° C., 60 min, curing 180° C., curing dwell time 1.0 min",1.3 Log
same,Log reduction of antimicrobial performance,"exhaust 80° C., 60 min, curing 180° C., curing dwell time 1.5 min",1.5 Log
same,Log reduction of antimicrobial performance,"exhaust 80° C., 60 min, curing 180° C., curing dwell time 2.0 min",3.8 Log
same,Log reduction of antimicrobial performance,"exhaust 80° C., 60 min, curing 180° C., curing dwell time 2.5 min",3.7 Log
same,Log reduction of antimicrobial performance,"exhaust 80° C., 60 min, curing 180° C., curing dwell time 3.0 min",3.5 Log
same,Log reduction of antimicrobial performance,"exhaust 80° C., 60 min, curing 190° C., curing dwell time 0.5 min",0.6 Log
same,Log reduction of antimicrobial performance,"exhaust 80° C., 60 min, curing 190° C., curing dwell time 1.0 min",0.9 Log
same,Log reduction of antimicrobial performance,"exhaust 80° C., 60 min, curing 190° C., curing dwell time 1.5 min",1.5 Log
same,Log reduction of antimicrobial performance,"exhaust 80° C., 60 min, curing 190° C., curing dwell time 2.0 min",2.79 Log
same,Log reduction of antimicrobial performance,"exhaust 80° C., 60 min, curing 190° C., curing dwell time 2.5 min",2.2 Log
same,Log reduction of antimicrobial performance,"exhaust 80° C., 60 min, curing 190° C., curing dwell time 3.0 min",1.1 Log
same,Log reduction of antimicrobial performance,"exhaust 80° C., 60 min, curing temperature 100 ° C.",0.21 Log
same,Log reduction of antimicrobial performance,"exhaust 80° C., 60 min, curing temperature 120 ° C.",0.32 Log
same,Log reduction of antimicrobial performance,"exhaust 80° C., 60 min, curing temperature 140 ° C.",0.99 Log
same,Log reduction of antimicrobial performance,"exhaust 80° C., 60 min, curing temperature 160 ° C.",1.04 Log
same,Log reduction of antimicrobial performance,"exhaust 80° C., 60 min, curing temperature 165 ° C.",1.12 Log
same,Log reduction of antimicrobial performance,"exhaust 80° C., 60 min, curing temperature 170 ° C.",1.59 Log
same,Log reduction of antimicrobial performance,"exhaust 80° C., 60 min, curing temperature 175 ° C.",2.05 Log
same,Log reduction of antimicrobial performance,"exhaust 80° C., 60 min, curing temperature 180 ° C.",2.78 Log
same,Log reduction of antimicrobial performance,"exhaust 80° C., 60 min, curing temperature 185 ° C.",2.79 Log
same,Log reduction of antimicrobial performance,"exhaust 80° C., 60 min, curing temperature 190 ° C.",2.8 Log
same,Log reduction of antimicrobial performance,"exhaust 80° C., 60 min, curing temperature 195 ° C.",2.82 Log
same,Log reduction of antimicrobial performance in 100 GSM Polyester fabric,[1],0.56 Log
same,Log reduction of antimicrobial performance in 100 GSM cotton fabric,[1],0.55 Log
same,Log reduction of antimicrobial performance in 300 GSM Polyester fabric,[1],0.54 Log
same,Log reduction of antimicrobial performance in 300 GSM cotton fabric,[1],0.57 Log
same,Log reduction of antimicrobial performance in 100 GSM Polyester fabric,[2],1.45 Log
same,Log reduction of antimicrobial performance in 100 GSM cotton fabric,[2],1.35 Log
same,Log reduction of antimicrobial performance in 300 GSM Polyester fabric,[2],1.48 Log
same,Log reduction of antimicrobial performance in 300 GSM cotton fabric,[2],1.35 Log
same,Log reduction of antimicrobial performance in 100 GSM Polyester fabric,[3],1.77 Log
same,Log reduction of antimicrobial performance in 100 GSM cotton fabric,[3],1.67 Log
same,Log reduction of antimicrobial performance in 300 GSM Polyester fabric,[3],1.79 Log
same,Log reduction of antimicrobial performance in 300 GSM cotton fabric,[3],1.67 Log
same,Log reduction of antimicrobial performance in 100 GSM Polyester fabric,[4],1.85 Log
same,Log reduction of antimicrobial performance in 100 GSM cotton fabric,[4],1.84 Log
same,Log reduction of antimicrobial performance in 300 GSM Polyester fabric,[4],1.85 Log
same,Log reduction of antimicrobial performance in 300 GSM cotton fabric,[4],1.87 Log
same,Log reduction of antimicrobial performance in 100 GSM Polyester fabric,[5],2.68 Log
same,Log reduction of antimicrobial performance in 100 GSM cotton fabric,[5],2.87 Log
same,Log reduction of antimicrobial performance in 300 GSM Polyester fabric,[5],2.65 Log
same,Log reduction of antimicrobial performance in 300 GSM cotton fabric,[5],2.88 Log
same,Log reduction of antimicrobial performance of each active ingredient,"exhaust 80° C., 60 min, dosage 1% o.w.f (test up to 5% o.w.f)",2.35 Log
same,Log reduction of antimicrobial performance of each active ingredient,"exhaust 80° C., 60 min, dosage 2% o.w.f",2.36 Log
same,Log reduction of antimicrobial performance of each active ingredient,"exhaust 80° C., 60 min, dosage 3% o.w.f",2.37 Log
same,Log reduction of antimicrobial performance of each active ingredient,"exhaust 80° C., 60 min, dosage 4% o.w.f",2.38 Log
same,Log reduction of antimicrobial performance of each active ingredient,"exhaust 80° C., 60 min, dosage 5% o.w.f",2.41 Log
same,Log reduction of antimicrobial performance of each active ingredient,"exhaust 80 ° C., solution dosage 1% o.w.f, process time 10 min",0.5 Log
same,Log reduction of antimicrobial performance of each active ingredient,"exhaust 80 ° C., solution dosage 1% o.w.f, process time 20 min",1 Log
same,Log reduction of antimicrobial performance of each active ingredient,"exhaust 80 ° C., solution dosage 1% o.w.f, process time 30 min",1.4 Log
same,Log reduction of antimicrobial performance of each active ingredient,"exhaust 80 ° C., solution dosage 1% o.w.f, process time 40 min",1.9 Log
same,Log reduction of antimicrobial performance of each active ingredient,"exhaust 80 ° C., solution dosage 1% o.w.f, process time 50 min",2.4 Log
same,Log reduction of antimicrobial performance of each active ingredient,"exhaust 80 ° C., solution dosage 1% o.w.f, process time 60 min",2.8 Log
same,Log reduction of antimicrobial performance of each active ingredient,"exhaust 80 ° C., solution dosage 1% o.w.f, process time 70 min",2.8 Log
same,Log reduction of antimicrobial performance of each active ingredient,"exhaust 80 ° C., solution dosage 1% o.w.f, process time 80 min",2.8 Log
same,Log reduction of antimicrobial performance of each active ingredient,"exhaust 80 ° C., solution dosage 1% o.w.f, process time 90 min",2.9 Log
same,Performance Test-Log reduction of antimicrobial performance,curing 120° C.,0.02 Log
same,Performance Test-Log reduction of antimicrobial performance,curing 140° C.,0.24 Log
same,Performance Test-Log reduction of antimicrobial performance,curing 150° C.,0.31 Log
same,Performance Test-Log reduction of antimicrobial performance,curing 160° C.,0.53 Log
